pIC50: −log10 of the molar value.

The pIC50 is the negative decadic logarithm of the IC50, by convention in mol/L.

One test has as its system KMS27 xenografts. The test can be described thus: KMS27 multiple myeloma xenograft, tumor growth inhibition and delay. Format: in vivo, NSG mice. The note with it: 50 mg/kg QD3, PO, single agent. Here is the method:
The in vivo therapeutic effect of two CD48-targeting MCL-1 ADCs formulated in Phosphate-Buffered Saline (PBS) was determined in KMS27 multiple myeloma model after intravenous (IV) administration.
KMS27 cells, obtained from JCRB, were cultured in RPMI supplemented with 10% FBS. Cells were resuspended in 50% matrigel (BD Biosciences) and 0.1 ml containing 10×10^6 cells were subcutaneously inoculated into the right flank of female NSG mice, provided by Jax. When tumors reached the appropriate volume, mice were randomized, 6 animals per group, using Easy stat software. Anti-CD48 NY920_CysmAb Fc silent, anti-CD48 NY938_CysmAb Fc silent, anti-CD48 NY920_CysmAb Fc silent_L42-P1 and anti-CD48 NY938_CysmAb Fc silent_L42-P1 (2.5 and/or 5 mg/kg) were injected once IV in PBS in combination with ABT-199 (50 mg/kg, PO for 3 consecutive days=QD3 in PEG/ethanol/phosal). Mice body weight was monitored three times a week and tumor size measured using electronic calipers. Tumor volume was estimated by measuring the minimum and maximum tumor diameters using the formula: (minimum diameter)^2 (maximum diameter)/2. […]
With DTV (Delta Tumor Volume) at Dx, calculated being TV at Dx-TV at Randomization. Tumor Growth Delay (TGD) was calculated as the number of days required for the median tumor volume in each group to reach back the starting tumor volume (at randomization). […]

The test system of a further test is KMS-21-BM xenografts. In words: KMS-21-BM multiple myeloma xenograft, tumor growth inhibition and delay. To be noted: 0.5 mg/kg QD, single agent. Format: in vivo, NSG mice. As for the experimental part: The in vivo therapeutic effect of a CD48-targeting MCL-1 ADC formulated in Phosphate-Buffered Saline (PBS) was determined in KMS-21-BM multiple myeloma model after intravenous (IV) administration.
KMS-21-BM cells, obtained from JCRB, were cultured in RPMI supplemented with 10% FBS. Cells were resuspended in 100% matrigel (BD Biosciences) and 0.1 ml containing 10×10^6 cells were subcutaneously inoculated into the right flank of female NSG mice, provided by Jax. When tumors reached the appropriate volume, mice were randomized, 6 animals per group, using Easy stat software. IgG1-Linker-Payload Fc WT, anti-CD48 NY920_CysmAb Fc WT, anti-CD48 NY920_CysmAb Fc WT_L42-P1 (10 and/or 30 mg/kg) and Bortezomib (0.5 mg/kg) were injected, alone or in combination, once IV in PBS and NaCl 0.9%, respectively. Mice body weight was monitored three times a week and tumor size measured using electronic calipers. Tumor volume was estimated by measuring the minimum and maximum tumor diameters using the formula: (minimum diameter)^2 (maximum diameter)/2. Tumor growth inhibition on day 21 was calculated using the formula: […]
With DTV (Delta Tumor Volume) at Dx, calculated being TV at Dx−TV at Randomization. Tumor Growth Delay (TGD) was calculated as the number of days required for the median tumor volume in each group to reach 500 mm^3. […]

In the next test the test system is KMS-21-BM. In words: CellTiter-Glo proliferation assay (Example 7). In kind it is cell-based. The note with it: 5 days. As for the experimental part: (§1) The CD48 MCL-1 antibody drug conjugates were tested against three endogenous cancer cell lines: NCI-H929 (ATCC No. CRL-9068 cultured in RPMI-1640+10% FBS+0.05 mM 2-mercaptoethanol), KMS-21 BM (JCRB No. JCRB1185 cultured in RPMI-1640+10% FBS) and KMS-27 (JCRB No. JCRB1188 cultured in RPMI-1640+10% FBS).
(§2) The ability of the MCL-1 antibody drug conjugates to inhibit cell proliferation and survival was assessed using the Promega CellTiter-Glo® proliferation assay. ADCs were generated generally as described in Example 6. Cell lines were cultured in media that is optimal for their growth at 5% CO2, 37° C. in a tissue culture incubator. Prior to seeding for the proliferation assay, the cells were split at least 2 days before the assay to ensure optimal growth density. On the day of seeding, cell viability and cell density were determined using a cell counter (Vi-Cell XR Cell Viability Analyzer, Beckman Coulter). Cells with higher than 85% viability were seeded in white clear bottom 384-well TC treated plates (Corning cat. #3765). Cells were seeded at a density of 1,000 cells per well in 45 μL of standard growth media. Plates were incubated at 5% CO2, 37° C. overnight in a tissue culture incubator. The next day, free MCL-1 payload (P1), targeting MCL-1 ADCs, and non-targeting isotype (IgG) ADCs were prepared at 10× in standard growth media. The prepared MCL-1 payload (P1) treatment was then added to the cells resulting in final concentrations of 0.005-100 nM and a final volume of 50 uL per well. The prepared CD48 targeting and isotype matched non-targeting control ADC treatments were added to the cells resulting in final concentrations of 0.015-300 nM and a final volume of 50 uL per well. Each drug concentration was tested in quadruplets. Plates were incubated at 5% CO2, 37° C. for 5 days in a tissue culture incubator, after which cell viability was assessed through the addition of 25 μL of CellTiter Glo® (Promega, cat #G7573), a reagent which lyses cells and measures total adenosine triphosphate (ATP) content. Plates were incubated at room temperature for 10 minutes to stabilize luminescent signals prior to reading using a luminescence reader (EnVision Multilabel Plate Reader, PerkinElmer). To evaluate the effect of the drug treatments, luminescent counts from wells containing untreated cells (100% viability) were used to normalize treated samples. A variable slope model was applied to fit a nonlinear regression curve to the data in GraphPad PRISM version 7.02 software. IC50 and Amax values were extrapolated from the resultant curves.
For orientation: ATP-based viability assays read luminescence as a measure of living cells.

The next test concerns KMS-27. In words: CellTiter-Glo proliferation assay (Example 7). Format: cell-based. To be noted: 5 days. Here is the method:
as §1, §2

For the next test, the system named is NCI-H929. In words: CellTiter-Glo proliferation assay (Example 7). To be noted: 5 days. Format: cell-based. As for the experimental part: as §1, §2
Test [1] concerns NCI-H929, KMS-21 BM and KMS-27 cancer cell lines. In words: CellTiter-Glo proliferation assay (Example 7), summary over cell lines. In kind it is cell-based. The note with it: read-out: IC50 values, range over representative cancer cell lines. As for the experimental part:
as §1
The ability of the MCL-1 antibody drug conjugates to inhibit cell proliferation and survival was assessed using the Promega CellTiter-Glo® proliferation assay. ADCs were generated generally as described in Example 6. Cell lines were cultured in media that is optimal for their growth at 5% CO2, 37° C. in a tissue culture incubator. Prior to seeding for the proliferation assay, the cells were split at least 2 days before the assay to ensure optimal growth density. On the day of seeding, cell viability and cell density were determined using a cell counter (Vi-Cell XR Cell Viability Analyzer, Beckman Coulter). […] Plates were incubated at 5% CO2, 37° C. for 5 days in a tissue culture incubator, after which cell viability was assessed through the addition of 25 μL of CellTiter Glo® (Promega, cat #G7573), a reagent which lyses cells and measures total adenosine triphosphate (ATP) content. Plates were incubated at room temperature for 10 minutes to stabilize luminescent signals prior to reading using a luminescence reader (EnVision Multilabel Plate Reader, PerkinElmer). […]

Regarding `CC1(C)CCC(CN2CCN(c3ccc(C(=O)NS(=O)(=O)c4ccc(NCC5CCOCC5)c([N+](=O)[O-])c4)c(Oc4cnc5[nH]ccc5c4)c3)CC2)=C(c2ccc(Cl)cc2)C1` [ABT-199, venetoclax], in the test on KMS27 xenografts, the “% TGI (d4)” value is 120.82%. For the same compound, the TGD in the test with KMS27 xenografts (to reach back starting tumor volume) came out at 6.27 days.

For the compound `CC(C)C[C@H](NC(=O)[C@H](Cc1ccccc1)NC(=O)c1cnccn1)B(O)O` [Bortezomib], the “% TGI (d21)” value in the test on KMS-21-BM xenografts (IV (once)) amounted to 88.09%. The TGD with KMS-21-BM xenografts (IV, median tumor volume to reach 500 mm^3) is listed as 42.53 days.

As to `COc1ccccc1-c1nccc(COc2ccccc2C[C@@H](Oc2ncnc3sc(-c4ccc(F)cc4)c(-c4ccc(OCCN5CCN(C)CC5)c(Cl)c4C)c23)C(=O)O)n1` [P1, (2R)-2-[5-[3-chloro-2-methyl-4-[2-(4-methylpiperazin-1-yl)ethoxy]phenyl]-6-(4-fluorophenyl)thieno[2,3-d]pyrimidin-4-yl]oxy-3-[2-[[2-(2-methoxyphenyl)pyrimidin-4-yl]methoxy]phenyl]propanoic acid], the pIC50 is 8.94 with KMS-21-BM (120 h); 7.95 in the test with KMS-27 (120 h); 8.33 with NCI-H929 (Homo sapiens, 120 h); 7.95 to 8.94 in test [1]. Moreover, the “Amax (Span)” value in the test with KMS-21-BM was found to be 100.9; with KMS-27, 99; in the test on NCI-H929, 110.3.
